{
  "source": "patent US10995087B2",
  "about": "“Crystal form of URAT1 inhibitor, and preparation method therefor” (MEDSHINE DISCOVERY INC., priority 2017, dated 2021)",
  "key": {"[1]": {"assay": "Solubility test of crystal form A in 9 vehicles (HPLC)", "assay_type": "physicochemical", "conditions": "for Solubility (4 hrs) / Solubility (24 hrs) / solubility at 4 h / solubility at 24 h: 37° C.; for Solubility (4 hrs) / solubility at 4 h: stirring 4 hrs; for Solubility (24 hrs) / solubility at 24 h: stirring 24 hrs; for solubility at 4 h / solubility at 24 h: thermodynamic from solid", "experimental": "1. Preparation of diluent and mobile phase\nDiluent: 300 mL of pure water and 100 mL of pure acetonitrile were accurately measured, and mixed in a 1 L glass bottle, ultrasonically degassed for 10 minutes for use.\nMobile phase A: 0.1% phosphoric acid aqueous solution\nFor example: 2.0 mL of phosphoric acid was added into 2000 mL of water, and the mixture was ultrasounded for 10 minutes, mixed evenly, and naturally cooled to room temperature, as mobile phase A.\nMobile phase B: acetonitrile.\n2. Preparation of the control solution (using crystal form A per se as the control sample)\n5 mg of crystal form A was accurately weighed and placed in a sample bottle, and 10 mL of diluent was added, and the mixture was ultrasounded for 5 minutes, naturally cooled to room temperature, mixed evenly, and labeled as working control solution STD-1.\n5 mg of crystal form A was accurately weighed and placed in a sample bottle, and 10 mL of diluent was added, and the mixture was ultrasounded for 5 minutes, naturally cooled to room temperature, mixed evenly, and labeled as working control solution STD-2.\n3. Preparation of linear solution\nThe aforementioned working control solution STD-1 was successively diluted by 1 time, 10 times, 100 times, 1000 times and 2000 times, and was labeled as linear solutions L1, L2, L3, L4 and L5.\n6 mg of crystal form A was accurately weighed respectively and added into 8 mL glass bottle, and then 3 mL of different solvents (0.1N hydrochloric acid solution, 0.01N hydrochloric acid solution, purified water, pH 3.8 buffer solution, pH 4.5 buffer solution, pH 5.5 buffer solution, pH 6.0 buffer solution, pH 7.4 buffer solution, pH 6.8 buffer solution) were accurately added to prepare the suspensions. A stirrer was added to the above suspensions, and the suspensions were fully stirred at 37° C. in dark. After stirring, the solids in the pH 7.4 buffer solution and the pH 6.8 buffer solution were completely dissolved, 6 mg of crystal form A were accurately weighed respectively, and added to the buffer solutions, and stirred fully again to prepare suspensions. After stirring for 4 hours and 24 hours, samples were taken and centrifuged. The solutions were filtered with a filter membrane and their concentrations were measured by HPLC."}, "[2]": {"assay": "Plasma pharmacokinetics in male and female SD rats after single intravenous and intragastric administration", "assay_type": "in vivo", "conditions": "rat; for clearance: read-out: plasma clearance rate; for Vd: read-out: steady state apparent volume of distribution (Vdss); for bioavailability: PO 4.0 mg/kg vs IV 2.0 mg/kg; for Cmax: read-out: peak concentration (Cmax); for Tmax: read-out: peak time Tmax", "text": "Experimental purpose: Plasma pharmacokinetics of male and female SD rats after single intravenous injection and intragastric administration as well as repeated intragastric administration for 8 days for the compound of formula (I).\n1. In this experiment, 12 SD rats, half males and half females, were provided by Beijing Vital River Laboratory Animal Technologies Co., Ltd., and were divided into 2 groups according to the similarity of their body weights, each group had 3 females and 3 males. The details of the administration protocol and blood collection protocol were shown in Table 5 and Table 6, respectively.\nAll animals fasted every other night before the first day of administration and resumed to be fed 4 hours after the administration.\nNote: DMSO means dimethyl sulfoxide; HP-β-CD means hydroxypropyl-β-cyclodextrin; MC means methyl cellulose;\nIV means intravenous administration; PO means intragastric administration.\nSample Collection and Analysis Methods\n0.15 mL of blood samples from experimental animals were collected by jugular vein puncture, and immediately transferred to labeled centrifuge tubes containing K2-EDTA (0.5 M), and the plasma was separated by centrifugation within 30 minutes (centrifugation condition: 3000 g, 4° C., 15 minutes). Plasma concentrations were measured using a validated LC/MS/MS analysis method; plasma concentrations were processed using a non-compartment model of WinNonlin™ Version 6.3 (Pharsight, Mountain View, Calif.) pharmacokinetics software, and the pharmacokinetic parameters were calculated using the linear logarithmic trapezoid method."}, "[3]": {"target": "T1, uric acid transporter URAT1 (Homo sapiens, UniProt Q96S37)", "T1 construct": "expressed in transfected cells; host or cells: HEK293A, stably overexpressing URAT1; the empty vector control is HEK293A-pcDNA3.1", "T1 sequence (Q96S37 1-553)": "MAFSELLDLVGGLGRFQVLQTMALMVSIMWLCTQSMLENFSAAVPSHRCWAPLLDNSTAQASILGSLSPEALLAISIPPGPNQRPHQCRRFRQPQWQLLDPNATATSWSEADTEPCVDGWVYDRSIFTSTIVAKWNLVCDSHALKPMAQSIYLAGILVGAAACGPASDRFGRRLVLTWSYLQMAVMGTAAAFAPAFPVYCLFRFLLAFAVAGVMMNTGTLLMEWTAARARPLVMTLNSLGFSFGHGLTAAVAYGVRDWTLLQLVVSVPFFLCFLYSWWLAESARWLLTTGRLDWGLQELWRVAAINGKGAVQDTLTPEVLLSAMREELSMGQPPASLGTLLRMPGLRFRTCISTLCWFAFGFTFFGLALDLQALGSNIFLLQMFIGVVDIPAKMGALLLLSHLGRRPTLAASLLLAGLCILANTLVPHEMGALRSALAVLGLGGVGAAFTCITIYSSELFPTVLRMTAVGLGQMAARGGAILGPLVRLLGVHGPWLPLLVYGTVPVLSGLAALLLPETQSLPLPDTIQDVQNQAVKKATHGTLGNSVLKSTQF", "assay": "Uptake cell inhibition experiment: URAT1-mediated 14C-uric acid uptake in HEK293A-URAT1 cells", "assay_type": "cell-based"}, "[4]": {"conditions": "aqueous buffer, pH 4.5 buffer solution"}, "[5]": {"conditions": "aqueous buffer, pH 5.5 buffer solution"}, "[6]": {"conditions": "aqueous buffer, pH 6.0 buffer solution"}, "[7]": {"conditions": "aqueous buffer, pH 6.8 buffer solution"}, "[8]": {"conditions": "aqueous buffer, pH 7.4 buffer solution"}, "[9]": {"conditions": "female SD rats, IV single, 2.0 mg/kg"}, "[10]": {"conditions": "female SD rats, single intragastric (PO) 4.0 mg/kg"}, "[11]": {"conditions": "male SD rats, IV single, 2.0 mg/kg"}, "[12]": {"conditions": "male SD rats, single intragastric (PO) 4.0 mg/kg"}},
  "note": "Read-outs that look alike come from different tables or passages of the source.",
  "data": [
    {"smiles": "CC(C)(Sc1nnc(Br)n1-c1sc(C2CC2)c2c1CCC(F)(F)C2)C(=O)O", "note": "[crystal form A]", "values": [
      {"measurement": "Solubility (4 hrs)", "setting": "[1]; 0.01N HCl", "result": "<LOQ"},
      {"measurement": "Solubility (24 hrs)", "setting": "[1]; 0.01N HCl", "result": "<LOQ"},
      {"measurement": "Solubility (4 hrs)", "setting": "[1]; 0.1N HCl", "result": "<LOQ"},
      {"measurement": "Solubility (24 hrs)", "setting": "[1]; 0.1N HCl", "result": "<LOQ"},
      {"measurement": "solubility at 4 h", "setting": "[1]; [4]", "result": 1, "unit": "µg/mL"},
      {"measurement": "solubility at 24 h", "setting": "[1]; [4]", "result": 1, "unit": "µg/mL"},
      {"measurement": "solubility at 4 h", "setting": "[1]; [5]", "result": 66, "unit": "µg/mL"},
      {"measurement": "solubility at 24 h", "setting": "[1]; [5]", "result": 66, "unit": "µg/mL"},
      {"measurement": "solubility at 4 h", "setting": "[1]; [6]", "result": 214, "unit": "µg/mL"},
      {"measurement": "solubility at 24 h", "setting": "[1]; [6]", "result": 204, "unit": "µg/mL"},
      {"measurement": "solubility at 4 h", "setting": "[1]; [7]", "result": 1960, "unit": "µg/mL"},
      {"measurement": "solubility at 24 h", "setting": "[1]; [7]", "result": 1840, "unit": "µg/mL"},
      {"measurement": "solubility at 4 h", "setting": "[1]; [8]", "result": 3820, "unit": "µg/mL"},
      {"measurement": "solubility at 24 h", "setting": "[1]; [8]", "result": 4050, "unit": "µg/mL"},
      {"measurement": "Solubility in high pH buffer (conclusion)", "setting": "[1]; high pH buffer", "result": "good solubility"},
      {"measurement": "Solubility (4 hrs)", "setting": "[1]; pH 3.8 buffer solution", "result": "<LOQ"},
      {"measurement": "Solubility (24 hrs)", "setting": "[1]; pH 3.8 buffer solution", "result": "<LOQ"},
      {"measurement": "solubility at 4 h", "setting": "[1]; Purified water", "result": 45, "unit": "µg/mL"},
      {"measurement": "solubility at 24 h", "setting": "[1]; Purified water", "result": 58, "unit": "µg/mL"}
    ]},
    {"smiles": "CC(C)(Sc1nnc(Br)n1-c1sc(C2CC2)c2c1CCC(F)(F)C2)C(=O)O", "note": "[compound of formula (I)]", "values": [
      {"measurement": "AUC(0-inf)", "setting": "[2]; [9]", "result": "5240 ± 544", "unit": "ng·h/mL"},
      {"measurement": "half-life", "setting": "[2]; female SD rats, IV single, 2.0 mg/kg, read-out: elimination half-life (T1/2) (converted)", "result": "3.04 ± 1.12", "unit": "h"},
      {"measurement": "clearance", "setting": "[2]; [9]", "result": "6.41 ± 0.656", "unit": "mL/min/kg"},
      {"measurement": "Vd", "setting": "[2]; [9]", "result": "1.55 ± 0.408", "unit": "L/kg"},
      {"measurement": "bioavailability", "setting": "[2]; female SD rats", "result": 86, "unit": "%"},
      {"measurement": "AUC(0-inf)", "setting": "[2]; [10]", "result": "9010 ± 4670", "unit": "ng·h/mL"},
      {"measurement": "half-life", "setting": "[2]; female SD rats, single intragastric (PO) 4.0 mg/kg, read-out: elimination half-life (T1/2) (converted)", "result": "3.48 ± 0.835", "unit": "h"},
      {"measurement": "Cmax", "setting": "[2]; [10]", "result": "2110 ± 1350", "unit": "ng/mL"},
      {"measurement": "Tmax", "setting": "[2]; [10]", "result": "0.667 ± 0.289", "unit": "h"},
      {"measurement": "AUC(0-inf)", "setting": "[2]; [11]", "result": "3530 ± 723", "unit": "ng·h/mL"},
      {"measurement": "half-life", "setting": "[2]; male SD rats, IV single, 2.0 mg/kg, read-out: T1/2 (converted)", "result": "2.52 ± 0.671", "unit": "h"},
      {"measurement": "clearance", "setting": "[2]; [11]", "result": "9.76 ± 2.29", "unit": "mL/min/kg"},
      {"measurement": "Vd", "setting": "[2]; [11]", "result": "1.65 ± 0.44", "unit": "L/kg"},
      {"measurement": "bioavailability", "setting": "[2]; male SD rats", "result": 35.6, "unit": "%"},
      {"measurement": "AUC(0-inf)", "setting": "[2]; [12]", "result": 2510, "unit": "ng·h/mL"},
      {"measurement": "half-life", "setting": "[2]; male SD rats, single intragastric (PO) 4.0 mg/kg, read-out: elimination half-life (T1/2) (converted)", "result": 1.72, "unit": "h"},
      {"measurement": "Cmax", "setting": "[2]; [12]", "result": "1130 ± 483", "unit": "ng/mL"},
      {"measurement": "Tmax", "setting": "[2]; [12]", "result": "0.417 ± 0.144", "unit": "h"},
      {"measurement": "IC50", "setting": "[3]; HEK293A-URAT1 cells, 2 min administration, n=3, read-out: IC50, inhibition of uptake of 14C-UA mediated by URAT1", "result": 34, "unit": "nM"},
      {"measurement": "Inhibitory effect on URAT1 relative to reference compound lesinurad", "setting": "[3]; ratio of IC50 values", "result": "about 177 times"}
    ]}
  ]
}
